Reference: patent US11566007B2, “Ras inhibitors” (Revolution Medicines, Inc., priority 2019, dated 2023)

Legend:
NCI-H358 (K-Ras G12C) = experiment: CellTiter-Glo cell viability assay, NCI-H358; assay type: cell-based, human; settings: Homo sapiens, NCI-H358, 120 h, NCI-H358, 5-day treatment; class symbols; read-out: Additional H358 Cell Viability assay data (K-Ras G12C, IC50)
Method in brief: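 Compounds dispensed directly onto seeded K-Ras mutant cells; plates read on day 5 after ~30 min equilibration to room temperature, by CellTiter-Glo luminescence. Signal normalized as (sample/mean DMSO)×100, then fitted to a four-parameter logistic curve.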

K-Ras G12C = K-Ras G12C (Homo sapiens (Human), UniProt P01116+P62937, G12C); experiment: Ras-Raf (BRAF RBD) disruption / FRET / MOA assay, KRAS G12C; assay type: biochemical; settings: KRAS G12C; Ras-Raf disruption/FRET/MOA assay; read-out: IC50* KRAS G12C FRET data
Method in brief: (§1)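 A 10-point, 3-fold dilution series topping at 30 μM final was incubated 3 h at 25° C with the Ras/cyclophilin A/BRAF RBD mixture.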

K-Ras G13C = K-Ras G13C (Homo sapiens (Human), UniProt P01116+P62937, G13C); experiment: Ras-Raf (BRAF RBD) disruption / FRET / MOA assay, KRAS G13C; assay type: biochemical; settings: KRAS G13C; Ras-Raf disruption/FRET/MOA assay; read-out: IC50* KRAS G13C FRET data
Method in brief: as §1

KRAS G12S = KRAS G12S (Homo sapiens (Human), UniProt P01116+P62937, G12S); experiment: Ras-Raf (BRAF RBD) disruption / FRET / MOA assay, KRAS G12S; assay type: biochemical; settings: Ras-Raf disruption/FRET/MOA assay; class symbols; read-out: KRAS G12S FRET data IC50
Method in brief: as §1

KRAS G12V = KRAS G12V (Homo sapiens (Human), UniProt P01116+P62937, G12V); experiment: Ras-Raf (BRAF RBD) disruption / FRET / MOA assay, KRAS G12V; assay type: biochemical; settings: read-out: IC50* KRAS G12V FRET data
Method in brief: as §1

KRAS WT = KRAS WT (Homo sapiens (Human), UniProt P01116+P62937); experiment: Ras-Raf (BRAF RBD) disruption / FRET / MOA assay, KRAS WT; assay type: biochemical; settings: read-out: IC50* KRAS WT FRET data
Method in brief: as §1

KRAS G13D = KRAS G13D (Homo sapiens (Human), UniProt P01116+P62937, G13D); experiment: Ras-Raf (BRAF RBD) disruption / FRET / MOA assay, KRAS G13D; assay type: biochemical; settings: read-out: IC50* KRAS G13D FRET data
Method in brief: as §1

NRAS WT = NRAS WT (Homo sapiens (Human), UniProt P01111+P62937); experiment: Ras-Raf (BRAF RBD) disruption / FRET / MOA assay, NRAS WT; assay type: biochemical; settings: read-out: IC50* NRAS WT FRET data
Method in brief: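 Compounds (30 μM top final, 10-point 3-fold dilutions) incubated 3 h at 25° C with nucleotide-loaded Ras, cyclophilin A and BRAF RBD. Detection with 10 nM anti-His Eu-W1024 and 50 nM anti-GST allophycocyanin over another 1.5 h. Lowered TR-FRET ratio relative to DMSO wells gives IC50.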

NRAS WT, sequence (P01111 whole entry): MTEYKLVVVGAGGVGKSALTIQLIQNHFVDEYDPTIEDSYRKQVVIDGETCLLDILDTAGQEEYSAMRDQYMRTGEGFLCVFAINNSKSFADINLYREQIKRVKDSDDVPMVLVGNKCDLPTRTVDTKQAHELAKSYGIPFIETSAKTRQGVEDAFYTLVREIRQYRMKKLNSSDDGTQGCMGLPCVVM
NRAS WT, sequence (P62937 whole entry): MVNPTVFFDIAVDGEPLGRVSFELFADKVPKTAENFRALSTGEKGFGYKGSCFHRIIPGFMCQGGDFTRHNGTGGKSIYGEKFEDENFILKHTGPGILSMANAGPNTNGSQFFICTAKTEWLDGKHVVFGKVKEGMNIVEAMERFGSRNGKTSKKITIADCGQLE
KRAS G13D, sequence (P01116-2 other isoform, or with tags, fused parts or gaps G13D): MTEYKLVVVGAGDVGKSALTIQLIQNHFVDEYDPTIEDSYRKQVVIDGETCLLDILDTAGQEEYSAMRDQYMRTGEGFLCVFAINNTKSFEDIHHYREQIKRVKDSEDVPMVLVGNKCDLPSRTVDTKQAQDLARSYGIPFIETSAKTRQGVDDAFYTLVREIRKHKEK
KRAS G13D, sequence (P62937 whole entry): as the sequence (P62937 whole entry) above
K-Ras G12C, sequence (P01116-2 other isoform, or with tags, fused parts or gaps G12C): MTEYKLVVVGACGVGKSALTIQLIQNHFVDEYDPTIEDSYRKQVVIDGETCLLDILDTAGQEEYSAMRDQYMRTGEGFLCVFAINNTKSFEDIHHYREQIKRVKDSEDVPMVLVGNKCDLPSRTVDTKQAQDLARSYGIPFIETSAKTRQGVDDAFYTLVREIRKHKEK
K-Ras G12C, sequence (P62937 whole entry): as the sequence (P62937 whole entry) above
KRAS G12S, sequence (P01116-2 other isoform, or with tags, fused parts or gaps G12S): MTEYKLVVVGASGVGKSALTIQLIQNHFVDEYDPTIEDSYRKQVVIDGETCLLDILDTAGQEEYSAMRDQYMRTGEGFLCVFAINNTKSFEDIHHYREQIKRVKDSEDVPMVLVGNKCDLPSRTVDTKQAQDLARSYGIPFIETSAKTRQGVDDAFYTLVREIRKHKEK
KRAS G12S, sequence (P62937 whole entry): as the sequence (P62937 whole entry) above
KRAS G12V, sequence (P01116-2 other isoform, or with tags, fused parts or gaps G12V): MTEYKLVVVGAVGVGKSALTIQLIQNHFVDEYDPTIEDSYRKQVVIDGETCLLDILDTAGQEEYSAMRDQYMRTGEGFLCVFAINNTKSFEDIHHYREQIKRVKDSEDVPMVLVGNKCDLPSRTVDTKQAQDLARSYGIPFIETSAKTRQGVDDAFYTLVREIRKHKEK
KRAS G12V, sequence (P62937 whole entry): as the sequence (P62937 whole entry) above
K-Ras G13C, sequence (P01116-2 other isoform, or with tags, fused parts or gaps G13C): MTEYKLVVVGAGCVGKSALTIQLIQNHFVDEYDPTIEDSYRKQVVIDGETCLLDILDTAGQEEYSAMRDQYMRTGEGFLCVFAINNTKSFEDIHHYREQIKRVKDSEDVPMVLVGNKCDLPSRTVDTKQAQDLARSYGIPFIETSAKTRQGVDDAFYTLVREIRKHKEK
K-Ras G13C, sequence (P62937 whole entry): as the sequence (P62937 whole entry) above
KRAS WT, sequence (P01116-2 other isoform, or with tags, fused parts or gaps): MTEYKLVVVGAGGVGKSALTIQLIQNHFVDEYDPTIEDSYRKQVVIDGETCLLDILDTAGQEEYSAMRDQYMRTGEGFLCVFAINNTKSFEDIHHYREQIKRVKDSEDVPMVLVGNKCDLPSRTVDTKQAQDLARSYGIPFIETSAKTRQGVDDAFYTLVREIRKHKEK
KRAS WT, sequence (P62937 whole entry): as the sequence (P62937 whole entry) above

Compound	IC50 (NCI-H358 (K-Ras G12C)) [nM]	IC50 (K-Ras G12C) [nM]	IC50 (K-Ras G13C) [nM]	IC50 (KRAS G12S) [nM]	IC50 (KRAS G12V) [nM]	IC50 (KRAS WT) [nM]	IC50 (KRAS G13D) [nM]	IC50 (NRAS WT) [nM]
CCn1c(-c2cccnc2[C@H](C)OC)c2c3cc(ccc31)-c1nc(nn1C)C[C@H](NC(=O)[C@@H](COC1CN(C(=O)C#CC(C)(C)N(C)C)C1)C(C)C)C(=O)N1CCC[C@H](N1)C(=O)OCC(C)(C)C2 (atropisomer, axis not shown) [Example A720, (2R)-2-(((1-(4-(dimethylamino)-4-methylpent-2-ynoyl)azetidin-3-yl)oxy)methyl)-N-((6^3S,4S,Z)-1^1-ethyl-1^2-(2-((S)-1-methoxyethyl)pyridin-3-yl)-2^1,10,10-trimethyl-5,7-dioxo-6^1,6^2,6^3,6^4,6^5,6^6-hexahydro-1^1H,2^1H-8-oxa-1(5,3)-indola-6(1,3)-pyridazina-2(5,3)-triazolacycloundecaphane-4-yl)-3-methylbutanamide]	10 to 100	10 to 100	1000 to 10000	1000 to 10000	1000 to 10000	1000 to 10000	1000 to 10000	1000 to 10000
CCn1c(-c2cccnc2[C@H](C)OC)c2c3cc(ccc31)-c1csc(n1)C[C@H](NC(=O)[C@H](C(C)C)N(C)C(=O)N(C)C1CN(C(=O)/C=C/[C@@H]3CCCN3C)C1)C(=O)N1CCC[C@H](N1)C(=O)OCC(C)(C)C2 (atropisomer, axis not shown) [Example A730]	10 to 100	10 to 100	100 to 1000	100 to 1000	1000 to 10000	100 to 1000	100 to 1000	100 to 1000
CCn1c(-c2cccnc2[C@H](C)OC)c2c3cc(ccc31)-c1cccc(c1)C[C@H](NC(=O)[C@@H](COC1CN(C(=O)C#CC(C)(C)N(C)C3CC3)C1)C(C)C)C(=O)N1CCC[C@H](N1)C(=O)OCC(C)(C)C2 (atropisomer, axis not shown) [Example A613]	10 to 100	100 to 1000	> 10000	> 10000	> 10000	> 10000	> 10000	> 10000
C=CC(=O)N1CC2(CCN2C(=O)N(C)[C@H](C(=O)N[C@H]2Cc3cccc(n3)-c3ccc4c(c3)c(c(-c3cccnc3[C@H](C)OC)n4CC)CC(C)(C)COC(=O)[C@@H]3CCCN(N3)C2=O)C(C)C)C1 (atropisomer, axis not shown) [Example A636]	< 10	10 to 100	100 to 1000	100 to 1000	1000 to 10000	100 to 1000	1000 to 10000	100 to 1000
